Test results taken from paper PMC10997755, “Discovery of a small-molecule inhibitor that traps Polθ on DNA and synergizes with PARP inhibitors” (Nature Communications, 2024).
Values joined by “and” are separate entries in the source; they are usually repeats but may differ in a detail not shown here. Equal values may be shown once.

Legend:
MDA-MB-231 cells = assay: Clonogenic assay; assay type: cell-based; details: for percent suvival: Fig. 2f
Method in brief: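 Cells seeded at low density (300–1000 per well, by plate size and genotype), medium changed every 2 days, colonies grown 10–12 days. Fixed in water:ethanol:acetic acid, stained with 0.5% crystal violet, then counted; IC50 from ≥3 independent experiments, mean ± SEM.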

[1] = Clonogenic assay, OLA with or without RTX-161 (Fig. 2 a; cell line not given); assay type: cell-based; details: OLA 0, single experiments, relative to vehicle
Polκ = biological target: T1, Polκ (Homo sapiens, UniProt Q9UBT6); assay: Primer extension by recombinant Pols (selectivity); assay type: biochemical
T1 construct: gift: Dr. Arora (Fox Chase Cancer Center)
T1 sequence (Q9UBT6 1-870): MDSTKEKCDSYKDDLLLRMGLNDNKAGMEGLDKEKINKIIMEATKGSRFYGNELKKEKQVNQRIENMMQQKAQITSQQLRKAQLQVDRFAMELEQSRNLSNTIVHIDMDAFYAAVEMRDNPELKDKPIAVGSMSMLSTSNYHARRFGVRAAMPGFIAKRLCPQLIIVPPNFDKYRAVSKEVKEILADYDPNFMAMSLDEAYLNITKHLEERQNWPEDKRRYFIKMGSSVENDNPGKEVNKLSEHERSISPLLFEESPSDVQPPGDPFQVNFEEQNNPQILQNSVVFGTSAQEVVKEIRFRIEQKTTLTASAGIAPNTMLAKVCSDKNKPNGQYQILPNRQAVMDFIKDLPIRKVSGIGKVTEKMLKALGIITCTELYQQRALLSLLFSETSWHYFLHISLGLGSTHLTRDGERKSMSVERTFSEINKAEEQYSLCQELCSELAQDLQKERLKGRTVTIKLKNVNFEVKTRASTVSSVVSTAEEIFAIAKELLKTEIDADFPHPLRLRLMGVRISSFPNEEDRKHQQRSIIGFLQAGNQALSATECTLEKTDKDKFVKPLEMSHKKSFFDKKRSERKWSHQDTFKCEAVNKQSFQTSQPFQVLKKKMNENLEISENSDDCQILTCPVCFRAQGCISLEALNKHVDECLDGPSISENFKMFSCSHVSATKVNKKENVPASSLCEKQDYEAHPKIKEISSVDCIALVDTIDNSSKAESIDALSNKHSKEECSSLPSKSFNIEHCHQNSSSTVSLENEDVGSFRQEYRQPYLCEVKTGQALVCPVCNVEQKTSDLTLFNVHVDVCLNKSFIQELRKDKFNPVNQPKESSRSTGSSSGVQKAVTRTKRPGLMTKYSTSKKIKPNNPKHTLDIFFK

[2] = Colony survival, ola with or without RTX-161 (source data sheet Fig. 2 c; cell line not given); assay type: cell-based
Polθ-pol = biological target: T2, Polθ-pol (Homo sapiens, UniProt O75417); assay: Primer extension by recombinant Pols (selectivity); assay type: biochemical
T2 construct: purified recombinant human Polθ-pol (comprising amino acid residues 1792–2590); made in house
T2 sequence (O75417 1792-2590): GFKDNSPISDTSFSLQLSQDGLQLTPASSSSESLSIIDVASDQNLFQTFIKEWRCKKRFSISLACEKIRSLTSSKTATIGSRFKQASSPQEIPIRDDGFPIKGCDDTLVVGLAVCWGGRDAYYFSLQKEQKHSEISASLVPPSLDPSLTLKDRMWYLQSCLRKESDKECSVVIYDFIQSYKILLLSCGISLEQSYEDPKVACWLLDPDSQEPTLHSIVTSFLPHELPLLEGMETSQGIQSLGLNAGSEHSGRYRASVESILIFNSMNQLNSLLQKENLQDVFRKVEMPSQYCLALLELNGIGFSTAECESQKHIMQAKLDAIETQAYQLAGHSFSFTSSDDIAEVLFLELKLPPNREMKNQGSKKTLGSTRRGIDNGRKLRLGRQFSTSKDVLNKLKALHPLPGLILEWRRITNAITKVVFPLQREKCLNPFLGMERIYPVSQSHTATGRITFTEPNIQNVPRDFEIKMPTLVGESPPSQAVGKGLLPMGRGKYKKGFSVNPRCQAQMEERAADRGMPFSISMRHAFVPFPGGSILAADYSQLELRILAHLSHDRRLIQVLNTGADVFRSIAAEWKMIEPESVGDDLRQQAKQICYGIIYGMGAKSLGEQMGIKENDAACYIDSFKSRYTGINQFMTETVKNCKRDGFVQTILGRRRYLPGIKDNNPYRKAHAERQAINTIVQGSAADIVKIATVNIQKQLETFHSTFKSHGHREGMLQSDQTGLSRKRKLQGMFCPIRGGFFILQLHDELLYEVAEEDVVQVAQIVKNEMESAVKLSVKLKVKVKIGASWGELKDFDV

With `CN(C(=O)Oc1c(N2CCN(CCO)C2=O)cc(C(F)(F)F)cc1C(F)(F)F)c1ccc(F)cc1` [RTx-161] the percent suvival (MDA-MB-231 cells; Rtx-161 5 microM + Talazoparib 12.5 nano M, experiment block 1 (c0-c7)) was 68.1979%, the percent suvival (MDA-MB-231 cells; Rtx-161 5 microM + Talazoparib 12.5 nano M, experiment block 2 (c8-c15)) was 63.9241% and the percent suvival (MDA-MB-231 cells; Rtx-161 5 microM + Talazoparib 12.5 nano M, experiment block 3 (c16-c23)) was 59.2391%. It also gave a percent suvival (MDA-MB-231 cells; Rtx-161 5 microM + Talazoparib 25 nano M, experiment block 1 (c0-c7)) of 45.2297%, a percent suvival (MDA-MB-231 cells; Rtx-161 5 microM + Talazoparib 25 nano M, experiment block 2 (c8-c15)) of 50% and a percent suvival (MDA-MB-231 cells; Rtx-161 5 microM + Talazoparib 25 nano M, experiment block 3 (c16-c23)) of 34.2391%. For the same compound, the percent suvival (MDA-MB-231 cells; Rtx-161 5 microM + Talazoparib 50 nano M, experiment block 1 (c0-c7)) was 12.7208%, the percent suvival (MDA-MB-231 cells; Rtx-161 5 microM + Talazoparib 50 nano M, experiment block 2 (c8-c15)) was 18.9873% and the percent suvival (MDA-MB-231 cells; Rtx-161 5 microM + Talazoparib 50 nano M, experiment block 3 (c16-c23)) was 15.7609%. It also gave a percent suvival (MDA-MB-231 cells; Rtx-161 5 microM, Talazoparib 0 nano M, experiment block 1 (c0-c7)) of 93.6396%, a percent suvival (MDA-MB-231 cells; Rtx-161 5 microM, Talazoparib 0 nano M, experiment block 2 (c8-c15)) of 98.7342% and a percent suvival (MDA-MB-231 cells; Rtx-161 5 microM, Talazoparib 0 nano M, experiment block 3 (c16-c23)) of 88.587%. The “combination with Talazoparib” value (MDA-MB-231 cells; clonogenic survival, HR-proficient cells) was “modestly potentiated the effects of Talazoparib”, the percent suvival ([1]; RTX-161 0.5 micro M) was 63.3333% and 80.7018% and 61.1842% and the percent suvival ([1]; RTX-161 1 micro M) was 55.8333% and 71.9298% and 46.0526%. The percent suvival ([1]; RTX-161 2 micro M) was 43.3333% and 23.3918% and 22.3684%, the “% Full Extension” value (Polκ; Pol Kappa) was 89.30% and the “% Inhibition Compared to Control” value (Polκ; Pol Kappa) was 0.85%. The “% Relative Maximum Extension” value (Polκ; Pol Kappa) was 99.15%, the “inhibition of primer extension” value (Polκ; selectivity panel, Pol named in Supplementary Fig. 1h) was “no inhibition” and the percent suvival ([2]; RTX-161 1 uM + ola 0.125 um) was 37.2624% and 27.7457% and 32.5843%. For the same compound, the percent suvival ([2]; RTX-161 1 uM + ola 0.25 um) was 11.4068% and 11.5607% and 13.4831%, the percent suvival ([2]; RTX-161 1 uM, ola 0 um) was 93.9163% and 101.156% and 103.371% and the percent suvival ([2]; RTX-161 2 uM, ola 0 um) was 93.5361% and 104.624% and 106.742%. For the same compound, the “% Full Extension” value (Polθ-pol; Pol Theta) was 14.28%, the “% Inhibition Compared to Control” value (Polθ-pol; Pol Theta) was 85.17% and the “% Relative Maximum Extension” value (Polθ-pol; Pol Theta) was 14.83%. The “inhibition of primer extension” value (Polθ-pol; selectivity panel) was “selective inhibition”.
